Measured values published in the supplement of paper PMC10307832.

How the values were obtained:
Assay in all cases: relative viability (nuclei count vs DMSO), 5 days (fraction); higher = more cells survive
[1] = compound: O=C(NC1CCNCC1)c1n[nH]cc1NC(=O)c1c(Cl)cccc1Cl [AT-7519] + CS(=O)(=O)N1CCN(Cc2cc3nc(-c4cccc5[nH]ncc45)nc(N4CCOCC4)c3s2)CC1 [Pictilisib] (partner 1 µM)
Procedure, shortened: (§1)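 Five library-drug doses in √10 steps were combined with a fixed anchor-drug dose, or a single drug was given alone, by pin tool to lung cancer cell lines in 1536-well plates the day after seeding. Nuclei were stained and counted after 5 days. Relative viability is the nuclei count in treated wells over that in vehicle wells, taken as the median of duplicate plates.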

[2] = compound: O=C(NC1CCNCC1)c1n[nH]cc1NC(=O)c1c(Cl)cccc1Cl [AT-7519] + CC(=O)c1c(C)c2cnc(Nc3ccc(N4CCNCC4)cn3)nc2n(C2CCCC2)c1=O [Palbociclib] (partner 0.5 µM)
Procedure, shortened: as §1

[3] = compound: O=C(NC1CCNCC1)c1n[nH]cc1NC(=O)c1c(Cl)cccc1Cl [AT-7519] + O=C(c1cc(Cc2n[nH]c(=O)c3ccccc23)ccc1F)N1CCN(C(=O)C2CC2)CC1 [Olaparib] (partner 8 µM)
Procedure, shortened: as §1

[4] = compound: C1=CC2=C(C=C(C(=C2N=C1)O)N=NC3=CC4=C(C=C3)C=C(C=C4)S(=O)(=O)O)S(=O)(=O)O + CC(=O)c1c(C)c2cnc(Nc3ccc(N4CCNCC4)cn3)nc2n(C2CCCC2)c1=O [Palbociclib] (partner 0.5 µM)
Procedure, shortened: as §1

Cell Line	relative viability ([1]; first compound 0.01 µM)	relative viability ([1]; first compound 0.03162 µM)	relative viability ([1]; first compound 0.3162 µM)	relative viability ([1]; first compound 1 µM)	relative viability ([2]; first compound 0.01 µM)	relative viability ([2]; first compound 0.03162 µM)	relative viability ([2]; first compound 0.3162 µM)	relative viability ([2]; first compound 1 µM)	relative viability ([3]; first compound 0.01 µM)	relative viability ([3]; first compound 0.03162 µM)	relative viability ([3]; first compound 0.3162 µM)	relative viability ([3]; first compound 1 µM)	relative viability ([4]; first compound 0.08 µM)	relative viability ([4]; first compound 0.253 µM)	relative viability ([4]; first compound 0.8 µM)	relative viability ([4]; first compound 2.53 µM)	relative viability ([4]; first compound 8 µM)
NCI-H1944	0.356	0.334	0.323	0.339	0.314	0.322	0.292	0.268	0.383	0.424	0.412	0.337	0.347	0.323	0.337	0.359	0.327
NCI-H1975	0.293	0.253	0.231	0.146	0.51	0.599	0.362	0.176	0.816	0.67	0.641	0.15	0.753	0.592	0.606	0.639	0.666
NCI-H1993	0.783	0.76	0.929	0.606	0.759	0.638	0.612	0.229	1.04	0.833	0.973	0.769	0.625	0.669	0.603	0.687	0.763
NCI-H2009	0.914	0.763	0.654	0.247	0.209	0.2	0.19	0.18	0.663	0.697	0.61	0.707	0.221	0.22	0.245	0.214	0.192
NCI-H2023	0.25	0.24	0.207	0.172	0.393	0.401	0.243	0.0824	0.46	0.485	0.386	0.128	0.451	0.395	0.391	0.421	0.309
NCI-H2085	0.44	0.506	0.553	0.382	0.454	0.503	0.515	0.608	0.768	0.806	0.744	0.724	0.492	0.481	0.451	0.486	0.463
NCI-H2087	1.02	0.882	0.593	0.173	0.226	0.224	0.186	0.116	0.607	0.515	0.421	0.0663	0.238	0.213	0.199	0.215	0.191
NCI-H2126	0.571	0.516	0.464	0.433	0.348	0.352	0.358	0.341	0.902	0.935	0.932	0.874	0.342	0.363	0.359	0.36	0.327
NCI-H2170	0.305	0.29	0.234	0.255	0.418	0.427	0.345	0.423	0.585	0.59	0.608	0.562	0.469	0.401	0.393	0.438	0.402
